Key:
[1] = Inhibition of chymotrypsin like activity of yeast 20S proteasome beta 5 subunit after 30 mins by fluorescence assay; parameters: species or system Saccharomyces cerevisiae
[2] = test system: HCT-116; assay: Cytotoxicity against human HCT116 cells after 72 hrs by MTS/PMS assay; format: functional, cell-based; conditions: HCT-116, 72 h

**Q.** Which IC50 [1] does the source give for CCC[C@H](O)[C@@]12NC(=O)[C@H](CCCl)[C@]1(C)OC2=O [SALINOSPORAMIDE X5] here?
**A.** Its IC50 is 245 nM.

**Q.** What about the IC50 [2] of the same compound?
**A.** Its IC50 is 1090 nM.

**Q.** Which results are given for C[C@@]12OC(=O)[C@]1([C@@H](O)C1CCCC1)NC(=O)[C@@H]2CCCl?
**A.** IC50 [1]: 9.3 nM; IC50 [2]: 54 nM

**Q.** With C[C@@]12OC(=O)[C@]1([C@@H](O)C1CCC1)NC(=O)[C@@H]2CCCl [SALINOSPORAMIDE X3] as the compound, how does the IC50 [1] read?
**A.** Its IC50 is 93.4 nM.

**Q.** What about the IC50 [2] of the same compound?
**A.** Its IC50 is 188 nM.

**Q.** What does the source list for CC(C)[C@H](O)[C@@]12NC(=O)[C@H](CCCl)[C@]1(C)OC2=O [ANTIPROTEALIDE]?
**A.** IC50 [1]: 101 nM; IC50 [2]: 777 nM

**Q.** Which IC50 [1] does the source give for C[C@@]12OC(=O)[C@]1([C@@H](O)c1ccccc1)NC(=O)[C@@H]2CCCl [SALINOSPORAMIDE X4] here?
**A.** Its IC50 is 1030 nM.

**Q.** What about the IC50 [2] of the same compound?
**A.** Its IC50 is 6880 nM.

**Q.** Which IC50 [1] does the source give for C[C@@]12OC(=O)[C@]1([C@@H](O)C1CCCCC1)NC(=O)[C@@H]2CCCl here?
**A.** Its IC50 is 27.5 nM.

**Q.** And the IC50 [2]?
**A.** The IC50 was 176 nM.

**Q.** For CCCC[C@H](O)[C@@]12NC(=O)[C@H](CCCl)[C@]1(C)OC2=O [SALINOSPORAMIDE X6], which IC50 [1] is on record?
**A.** The IC50 was 132 nM.

**Q.** And the IC50 [2]?
**A.** The IC50 was 1110 nM.

**Q.** Which IC50 [1] does the source give for C[C@@]12OC(=O)[C@]1([C@@H](O)[C@@H]1C=CCCC1)NC(=O)[C@@H]2CCCl [MARIZOMIB] here?
**A.** Its IC50 is 1.9 nM.

**Q.** What about the IC50 [2] of the same compound?
**A.** The IC50 was 16 nM.

**Q.** Which IC50 [1] does the source give for C[C@@]12OC(=O)[C@]1([C@@H](O)[C@@H]1C=CCC1)NC(=O)[C@@H]2CCCl [SALINOSPORAMIDE X7] here?
**A.** Its IC50 is 2.2 nM.

**Q.** What about the IC50 [2] of the same compound?
**A.** Its IC50 is 5.9 nM.

From ChEMBL document CHEMBL1154272, “Function-oriented biosynthesis of beta-lactone proteasome inhibitors in Salinispora tropica” (J Med Chem, 2009)
